Results reported in publication PMC11436758, “Computer-aided drug design to generate a unique antibiotic family” (Nature Communications, 2024).
Values joined by “and” are separate entries in the source; they are usually repeats but may differ in a detail not shown here. Equal entries are not always repeated.

Test system: MRSA (ATCC 33591)
Test: Rabbit ischemic ear wound model of infection by MRSA, topical treatment
Type: in vivo, New Zealand White rabbits
Details: for % wound closure / wound size (mean) / Wound size (mm2): Fig 2a; for Wound size (mm2): individual wounds
Method: New Zealand White rabbits from Charles River were employed for this study. Both male and female rabbits were used; sample size prevented disaggregation of data by sex. Investigators were blinded to group allocation, data collection, and data analysis. Food and water were given ad libidum and animals were acclimatized for 7 days with photoperiods of alternating 12 h light and dark at 21 °C in relative humidity of 40–50%. The formulation for delivery of DNM compounds was Glaxal base (WellSpring Pharmaceutical Canada Corp., Oakville, Canada). Formulation was performed by dissolving compound in Glaxal base to give final concentrations of 1% or 2% DNM compound (w/v). The analgesic (Buprenex 0.02 mg/kg sc) and anesthesia (isoflurane (0.5–5% with oxygen carrier 0.5–2 L/min) were used as required during procedures. An ischemia wound healing model was conducted surgically. Each wound was inoculated with 50 μl of 2 × 10^7 CFU/mL MRSA (ATCC #33591) and dressed. After 1 day, wounds were treated with either 50 μl control cream containing vehicle or 50 μl cream containing compound daily. Wounds were assessed and observations recorded using the Draize scoring system. Digital photographs of each wound were obtained and documented.

## CC(C)c1cc(Cl)ccc1-c1cc(-c2nnn[nH]2)c(-c2ccc(Cl)cc2C(C)C)s1 [DNM0547]
Day 1
  % wound closure: 0%
  wound size (mean): 30.44 mm2
  Wound size (mm2): 29.51 mm2 and 29.83 mm2 and 28.32 mm2 and 27.53 mm2 and 32.52 mm2 and 34.03 mm2 and 26.69 mm2 and 25.2 mm2 and 36.13 mm2 and 34.64 mm2
Day 3
  % wound closure: 2.62%
  wound size (mean): 29.642 mm2
  Wound size (mm2): 31.06 mm2 and 29.08 mm2 and 27.25 mm2 and 24.3 mm2 and 31.24 mm2 and 33.16 mm2 and 27.53 mm2 and 25.7 mm2 and 33.48 mm2 and 33.62 mm2
Day 6
  % wound closure: 5.42%
  wound size (mean): 28.797 mm2
  Wound size (mm2): 28.85 mm2 and 31.18 mm2 and 26.33 mm2 and 24.01 mm2 and 30.73 mm2 and 32.69 mm2 and 26.4 mm2 and 21.93 mm2 and 33.19 mm2 and 32.66 mm2
Day 9
  % wound closure: 32.45%
  wound size (mean): 20.563 mm2
  Wound size (mm2): 23.09 mm2 and 21.11 mm2 and 22.61 mm2 and 20.99 mm2 and 19.44 mm2
Day 12
  % wound closure: 53.18%
  wound size (mean): 14.254 mm2
Day 15
  % wound closure: 73.94%
  wound size (mean): 7.93 mm2
  Wound size (mm2): 10.17 mm2 and 8.72 mm2 and 14.95 mm2 and 20.1 mm2 and 0.9 mm2 and 0.08 mm2 and 1.02 mm2 and 4 mm2 and 10.8 mm2 and 8.56 mm2
Day 18
  % wound closure: 87.25%
  wound size (mean): 3.88 mm2
  Wound size (mm2): 8.29 mm2 and 0.93 mm2 and 7.78 mm2 and 10.81 mm2 and 0.41 mm2 and 0 mm2 and 0.53 mm2 and 2.2 mm2 and 3.09 mm2 and 4.76 mm2
Day 21
  % wound closure: 97.93%
  wound size (mean): 0.636 mm2
  Wound size (mm2): 0 mm2 (8×) and 5.12 mm2 and 1.24 mm2
Quantitative microbiology at day 14, topical
  reduction in bacterial survival as compared to vehicle control: > 99%
Topical 2%
  bacteria in the wound (CFUs per gram of tissue at end of study): effectively eliminated bacteria from the wound
  day of complete wound closure: ≤ 21 days
Topical for 14 days, versus vehicle control
  wound closure: significantly improved wound closure
